Source: patent US5747535A, “Selective thrombin inhibitors” (priority 1995, dated 1998)
Where two headings read alike, the source gives them in different places.

Tests used:
bovine thrombin [1] = molecular target: T1, bovine thrombin (Bos taurus, UniProt P00735); conditions: for Ki: read-out: Inhibitory activity for thrombin, Ki, bovine thrombin, pH 7.8, initial velocity, reaction started with enzyme;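 on all read-outs here: bovine thrombin cleaving the chromogenic substrate Chromozym TH, with para-nitroaniline release tracked as absorbance change over time to give initial rates, in Tris buffer at pH 7.8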
Excerpt: (§1) The thrombin inhibitory effect of the compound of formula (I) according to the present invention can be identified by determination of a dissociation constant Ki represented by the following equation according to the known method described in literature [see, Methods in enzymology V. 80,p341-361;Biochemistry 27,p2144-2151 (1988)].
(§2) The dissociation constant Ki denotes the degree of dissociation of the enzyme-thrombin inhibitor complex. […] Such dissociation constant can be determined by reacting thrombin with a certain substrate which develops a color when it is hydrolyzed by the action of thrombin, and then measuring the degree of color development as a function of time by means of spectrophotometry.
(§3) Chromozym TH is hydrolyzed by thrombin to produce yellow para-nitroaniline. Accordingly, the amount of yellow para-nitroaniline thus produced can be measured as the change of absorbance in the course of time to determine the thrombin inhibitory activity of the compound according to the present invention. That is, the enzyme activity can be determined from the rate of change in absorbance and then can be directly connected with the ability of the thrombin inhibitor to inhibit the enzyme activity (see, Methods in Enzymology, V. 80,p341-361,Biochemistry 27, p2144-2151, 1988).
(§4) The ability of the compound according to the present invention to inhibit the thrombin activity was determined as described in the following.
(§5) 1160 μl of 0.1M tris buffered solution (pH 7.8) containing 150 mM NaCl and 0.1% PEG 8000 (polyethylene glycol, molecular weight about 8,000) was added to a 1.5 ml cuvette. Chromozym TH was dissolved in dimethylsulfoxide(DMSO) in the concentration of 10mM and the resulting solution was diluted with the said tris buffered solution to the concentration of 0.1 mM, which was then used as the substrate solution. 225 μl of 0.1 mM substrate solution thus prepared was added to the cuvette. The inhibitor solution was prepared by dissolving the thrombin inhibitor compound according to the present invention in dimethylsulfoxide in the concentration of 10 mg/ml and then diluting the resulting solution with the said tris buffered solution to the concentration of 0.1 mg/ml, 0.01 mg/ml, 0.001 mg/ml and 0.0001 mg/ml. The resulting inhibitor solution was taken in an amount corresponding to 0 to 10 μg as the inhibitor and then diluted with tris buffered solution to make the total volume of 100 μl which was added to the cuvette.
(§6) 15 μl of bovine thrombin solution dissolved in above tris buffered solution in the concentration of 0.1 mg/ml was added to the cuvette to initiate the enzyme hydrolysis reaction. The amount of para-nitroaniline produced for 2 minutes from the moment the enzyme is added was monitored by measuring the absorbance at 381 nm. The continuous spectrum of absorbance to reaction time was depicted. The same experiments were conducted for various concentration of the inhibitor to obtain the continuous spectrum.
(§7) In each spectrum, the initial velocity Vi was obtained from the slope within initial 30 seconds of the reaction time and then a graph for the reciprocal value of initial velocity(1/Vi) to the inhibitor concentration was depicted. From the graph, the primary equation satisfying the points depicted thereon was obtained and then the value Ki was calculated from the x intercept of the primary equation using the enzyme reaction equation.
(§8) The velocity constant Ks was obtained using the same solution in the same concentration as in determination of the value Ki but using the following experimental procedure.

[2] = human being; Osamu et al. 1986; cited from earlier work
thrombin over trypsin = conditions: cited from earlier work
[3] = literature, cited from earlier work
bovine thrombin [4] = molecular target: T1, bovine thrombin; assay: biochemical
Excerpt: as §1, §2, §3, §4, §5, §6, §7, §8

trypsin = molecular target: T2, trypsin (Bos taurus, UniProt P00760); assay: biochemical; type: biochemical; conditions: 20 μM substrate; read-out: Inhibitory activity for trypsin, Ki
T2 sequence (P00760 24-246): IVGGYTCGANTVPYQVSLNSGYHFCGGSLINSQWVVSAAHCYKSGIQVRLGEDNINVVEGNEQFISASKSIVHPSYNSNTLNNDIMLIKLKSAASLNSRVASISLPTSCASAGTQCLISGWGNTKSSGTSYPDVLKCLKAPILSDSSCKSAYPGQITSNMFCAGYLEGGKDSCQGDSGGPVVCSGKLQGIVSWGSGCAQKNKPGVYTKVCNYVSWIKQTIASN
Protocol: To identify the selectivity for thrombin over trypsin of the compound of the present invention, the inhibitory activity for trypsin of the compound of formula (I) is measured as Ki value according to the same method as the above method for determination of thrombin inhibitory activity, and then the ratio of the activity for trypsin to the activity for thrombin is calculated. In this case, the procedure for determination of inhibitory activity for trypsin is substantially identical to that for thrombin, except that N-benzoyl-Val-Gly-Arg para-nitroanilide hydrochloride is used as the substrate.
As the substrate 20μM solution of N-benzoyl-Val-Gly-Arg-p-nitroanilide hydrochloride was used, and the inhibitor was used in various concnetrations within the range of […]. In addition, trypsin was dissolved in 0.1N HCl, adjusted to the concentration of 45 μg/ml with the said tris buffered solution just before the experiment, and then used in an amount of 40μl. As in the experiment for thrombin, a total volume of the reaction solution was 1.5 ml and the remaining procedure was conducted in the same manner.

Ki (bovine thrombin [4])	Ki (trypsin)	Molecule	Ki (bovine thrombin [1])	further results
		CN(C(=O)[C@H](Cc1ccc(C(=N)NN)cc1)NS(=O)(=O)c1ccc2ccccc2c1)C1CC1 [Example 16, (S)-N-cyclopropyl-N-methyl-3-(4-amidrazonophenyl)-2-(2-naphthylsulfonylamino)propionamide]	247 nM	
		CC1CNc2c(cccc2S(=O)(=O)N[C@@H](CCCNC(=N)N)C(=O)N2CC[C@@H](C)C[C@@H]2C(=O)O)C1 (stereo partly shown) [Argatroban]		elimination half-life [2]: 40 min
		CCCCN(C(=O)[C@H](Cc1ccc(C(=N)NN)cc1)NS(=O)(=O)c1ccc2ccccc2c1)C1CCCC1 [Example 5, (S)-N-cyclopentyl-N-butyl-3-(4-amidrazonophenyl)-2-(2-naphthylsulfonylamino)propionamide]	231 nM	
		N=C(N)N1CCC[C@@H](CNC(=O)C[C@H](NS(=O)(=O)c2ccc3ccccc3c2)C(=O)N(CC(=O)O)C2CC2)C1 [Ro 46-6240]		selectivity for thrombin over trypsin (thrombin over trypsin; literature (J. Med. Chem. 1994, 37, 3889-3901)): improved selectivity for thrombin over trypsin; possibility for oral administration ([3]; oral): does not show any possibility for oral administration; half-life in blood [3]: short half-life in blood
		CCCN(C(=O)[C@H](Cc1ccc(C(=N)NN)cc1)NS(=O)(=O)c1ccc2ccccc2c1)C1CCCC1 [Example 3, (S)-N-cyclopentyl-N-propyl-3-(4-amidrazonophenyl)-2-(2-naphthylsulfonylamino)propionamide]	93 nM	
		N=C(NN)c1ccc(C[C@H](NS(=O)(=O)c2ccc3ccccc3c2)C(=O)N(O)C2CCCC2)cc1 [Example 10, (S)-N-cyclopentyl-N-hydroxy-3-(4-amidrazonophenyl)-2-(2-naphthylsulfonylamino)propionamide]	367 nM	
		Gly-Pro-Arg-4-nitroanilide acetate [Chromozym TH, reference compound]		Km (bovine thrombin [1]; substrate of thrombin, constant enzyme concentration): 8.3 µM
		CN(C(=O)[C@H](Cc1ccc(C(=N)NN)cc1)NS(=O)(=O)c1ccc2ccccc2c1)C1CCCCC1 [Example 15, (S)-N-cyclohexyl-N-methyl-3-(4-amidrazonophenyl)-2-(2-naphthylsulfonylamino)propionamide]	152 nM	
21.7 nM	2300 nM	COc1cc2ccc(S(=O)(=O)N[C@@H](Cc3ccc(C(=N)NN)cc3)C(=O)N(C)C3CCCC3)cc2cc1OC [Example 20, (S)-3-[4-(amidrazono)-phenyl]-N-cyclopentyl-N-methyl-2-(6,7-dimethoxy-naphthalene-2-sulfonylamino)-propionamide]		
5.3 nM	5250 nM	COc1cccc2c(S(=O)(=O)N[C@@H](Cc3ccc(C(=N)NN)cc3)C(=O)N(C)C3CCCC3)cccc12 [Example 19, (S)-3-[4-(amidrazono)-phenyl]-N-cyclopentyl-N-methyl-2-(5-methoxy-naphthalene-1-sulfonylamino)-propionamide]		
11 nM	3980 nM	CN(C)c1cccc2c(S(=O)(=O)N[C@@H](Cc3ccc(C(=N)NN)cc3)C(=O)N(C)C3CCCC3)cccc12 [Example 18, (S)-3-[4-(amidrazono)-phenyl]-N-cyclopentyl-N-methyl-2-(5-dimethylamino-naphthalene-1-sulfonylamino)-propionamide]		
		N=C(N)c1ccc(CC(NC(=O)CNS(=O)(=O)c2ccc3ccccc3c2)C(=O)N2CCCCC2)cc1 (stereo not shown) [NAPAP]		thrombin inhibitory activity relative to activity for trypsin (selectivity) (thrombin over trypsin; literature): 50 times
2590 nM	21700 nM	CN(C(=O)[C@H](Cc1ccc(C(=N)NN)cc1)NC(=O)COc1cccc2ccccc12)C1CCCC1 [Example 23, (S)-3-[4-(amidrazono)-phenyl]-N-cyclopentyl-N-methyl-2-[2-(naphthalen-1-yl-oxy)acetylamino]-propionamide]		
25 nM	> 100000 nM	CNC(=N)c1ccc(C[C@H](NS(=O)(=O)c2cccc3c(N(C)C)cccc23)C(=O)N(C)C2CCCC2)cc1 [Example 21, (S)-3-[4-(methylamidino)-phenyl]-N-cyclopentyl-N-methyl-2-(5-dimethylamino-naphthalene-1-sulfonylamino)-propionamide]		
		CCCCN(C)C(=O)[C@H](Cc1ccc(C(=N)NN)cc1)NS(=O)(=O)c1ccc2ccccc2c1 [Example 2, (S)-N-butyl-N-methyl-3-(4-amidrazonophenyl)-2-(2-naphthylsulfonylamino)propionamide]	41 nM	
